Our source for the TGI values is PubChem BioAssay (NCI).

Some test systems named below: HS 578T breast; UO-31 renal; OVCAR-8 ovarian; OVCAR-4 ovarian; MOLT-4 leukemia; NCI-H460 lung; SW-620 colon; SK-OV-3 ovarian; COLO 205 colon; MALME-3M melanoma; TK-10 renal; CCRF-CEM leukemia; RXF 393 renal; HCT-116 colon; SN12C renal; SR leukemia; MCF7 breast.
Assay in all cases: NCI tumour cell line growth inhibition, 48 h

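These data come from cells grown in 96-well plates and exposed to compound for 48 hours at five concentrations. At the TGI there is no net growth.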 Where a SMILES comes first, the peptide text is derived from it. [ ]: non-standard residue; d: D form. The star is where a group is joined. Bn2Val = CC(C)[C@@H](C(=O)*)N(Cc1ccccc1)Cc1ccccc1; NH(3,4-diMeO-benzyl) = COc1ccc(CN*)cc1OC; NMeV = CN[C@H](C(=O)O)C(C)C

Turning to `CCOP(=O)(OCC)C(Nc1ccc(C(=O)O)cc1)c1ccc(C(Nc2ccc(C(=O)O)cc2)P(=O)(OCC)OCC)cc1` (configuration not stated), the TGI with HS 578T breast, in the experiment with UO-31 renal, with OVCAR-8 ovarian, in the experiment with OVCAR-4 ovarian, with MOLT-4 leukemia and in the experiment on NCI-H460 lung was more than 100 µM throughout. The TGI in the experiment with SW-620 colon, in the experiment with SK-OV-3 ovarian, in the experiment with COLO 205 colon, in the experiment with MALME-3M melanoma, in the experiment with TK-10 renal and with CCRF-CEM leukemia was more than 100 µM each time. Also, the TGI with RXF 393 renal and in the experiment with HCT-116 colon was more than 100 µM each time.
`COc1ccc(CNC(=O)[C@@H]2CCCN2C(=O)[C@@H]2CCCN2C(=O)[C@H](C(C)C)N(C)C(=O)[C@@H](NC(=O)[C@H](C(C)C)N(Cc2ccccc2)Cc2ccccc2)C(C)C)cc1OC` (Bn2Val-V[NMeV]PP-{NH(3,4-diMeO-benzyl)}): the TGI was 29.9 µM with SN12C renal; more than 100 µM in the experiment on HS 578T breast; 30.3 µM with OVCAR-8 ovarian; 42.6 µM in the experiment with OVCAR-4 ovarian; 72.2 µM in the experiment on MOLT-4 leukemia; more than 60.5 µM with NCI-H460 lung. Besides, the TGI in the experiment on SW-620 colon is more than 60.8 µM; with SK-OV-3 ovarian, 31.4 µM; in the experiment with COLO 205 colon, 38.7 µM; with MALME-3M melanoma, 46.2 µM; with SR leukemia it was more than 100 µM; in the experiment on TK-10 renal, 29.5 µM. Besides, the TGI was more than 100 µM in the experiment on CCRF-CEM leukemia, 26.7 µM in the experiment on RXF 393 renal and 29.5 µM in the experiment on HCT-116 colon.
Regarding `COc1ccc(C2=NN(C(=O)c3cccnc3)C(O)(c3cc(F)c(Cl)cc3Cl)C2)cc1OC` (configuration not stated), the TGI in the experiment with SN12C renal was 34.7 µM; with HS 578T breast, 66.9 µM; in the experiment with UO-31 renal, 85 µM; in the experiment on OVCAR-8 ovarian it was 35.7 µM; in the experiment with OVCAR-4 ovarian, more than 100 µM; in the experiment on MOLT-4 leukemia it was more than 100 µM. The TGI in the experiment with NCI-H460 lung amounted to 38.3 µM; with SW-620 colon it was 69.8 µM; in the experiment with SK-OV-3 ovarian, 86.7 µM; with COLO 205 colon it was 27.8 µM; with MALME-3M melanoma it was 59.1 µM; in the experiment on SR leukemia it was 53.7 µM. Further, the TGI in the experiment on TK-10 renal is more than 100 µM; in the experiment on CCRF-CEM leukemia, more than 100 µM; in the experiment on RXF 393 renal, 33.5 µM; in the experiment with HCT-116 colon it was 29.2 µM.
For `CC1c2cc(c3c(c2O)CN([C@@H](C)C2CCCCC2)CO3)C(C)c2cc(c3c(c2O)CN([C@@H](C)C2CCCCC2)CO3)C(C)c2cc(c3c(c2O)CN([C@@H](C)C2CCCCC2)CO3)C(C)c2cc1c1c(c2O)CN([C@@H](C)C2CCCCC2)CO1` (some centres not stated), the TGI in the experiment with SN12C renal worked out at 2.29 µM; with HS 578T breast, 3.15 µM; in the experiment with UO-31 renal, 3.21 µM; in the experiment on OVCAR-8 ovarian it was 2.4 µM; with OVCAR-4 ovarian, 3.03 µM; in the experiment with MOLT-4 leukemia, 9.63 µM. The TGI with NCI-H460 lung came to 2.53 µM; in the experiment with SK-OV-3 ovarian, 2.72 µM; with COLO 205 colon it was 2.65 µM; with MALME-3M melanoma, 2.98 µM; in the experiment with SR leukemia, 1.44 µM; with TK-10 renal, 3.19 µM. Moreover, the TGI is 1.45 µM in the experiment on CCRF-CEM leukemia, more than 100 µM in the experiment with RXF 393 renal and 2.04 µM in the experiment with HCT-116 colon.
On to `CCN(CC)CCCNc1ncc(C)c2c1c1ccc3c(O)cccc3c1n2C`, for which the TGI in the experiment on SN12C renal is 14.3 µM; in the experiment with UO-31 renal, 21.2 µM; in the experiment on OVCAR-8 ovarian it was 3.5 µM; in the experiment with OVCAR-4 ovarian, 3.45 µM; in the experiment with MOLT-4 leukemia, 1.84 µM; with SW-620 colon, 2.61 µM. The TGI came to 16.6 µM in the experiment with SK-OV-3 ovarian; 2.06 µM in the experiment with MCF7 breast; 17.5 µM in the experiment with COLO 205 colon; 34.7 µM in the experiment on MALME-3M melanoma; 1.78 µM in the experiment on SR leukemia; 22.9 µM in the experiment on TK-10 renal. Also, the TGI was 6.1 µM in the experiment with CCRF-CEM leukemia, 9.41 µM in the experiment on RXF 393 renal and 2.28 µM in the experiment with HCT-116 colon.
With `O=C1OC(CS(=O)(=O)c2ccccc2)CC1O` (configuration not stated), the TGI with SN12C renal, with UO-31 renal, in the experiment on OVCAR-8 ovarian, in the experiment with OVCAR-4 ovarian, in the experiment with MOLT-4 leukemia and with NCI-H460 lung was more than 100 µM each time. Besides, the TGI in the experiment with SW-620 colon, in the experiment with SK-OV-3 ovarian, in the experiment on MCF7 breast, in the experiment with COLO 205 colon, in the experiment on MALME-3M melanoma and with SR leukemia was more than 100 µM in each case. The TGI in the experiment on TK-10 renal, in the experiment on CCRF-CEM leukemia, in the experiment on RXF 393 renal and in the experiment on HCT-116 colon was more than 100 µM each time.
On to `O=C(Nc1ccc(Cl)cc1)NS(=O)(=O)c1c(-c2ccccc2)oc2ccccc2c1=O`, for which the TGI in the experiment with SN12C renal, in the experiment with HS 578T breast, in the experiment on UO-31 renal, with OVCAR-8 ovarian, with OVCAR-4 ovarian and in the experiment with MOLT-4 leukemia was more than 100 µM throughout. Further, the TGI in the experiment with NCI-H460 lung, in the experiment with SW-620 colon, in the experiment on SK-OV-3 ovarian, in the experiment on COLO 205 colon, in the experiment with MALME-3M melanoma and in the experiment on SR leukemia was more than 100 µM in each case. In addition, the TGI in the experiment with TK-10 renal is 86.9 µM; in the experiment on CCRF-CEM leukemia, more than 100 µM; with RXF 393 renal, more than 100 µM; in the experiment on HCT-116 colon, more than 100 µM.
